Measurements published in publication PMC11557892, “Structural basis of MICAL autoinhibition” (Nature Communications, 2024).

T1: human MICAL1 (Homo sapiens, UniProt Q8TDZ2)
T1 construct: full length M1-G1067, C-terminal 3C-His8 tag, baculovirus-infected Sf9 cells
T1 sequence (Q8TDZ2 1-1067): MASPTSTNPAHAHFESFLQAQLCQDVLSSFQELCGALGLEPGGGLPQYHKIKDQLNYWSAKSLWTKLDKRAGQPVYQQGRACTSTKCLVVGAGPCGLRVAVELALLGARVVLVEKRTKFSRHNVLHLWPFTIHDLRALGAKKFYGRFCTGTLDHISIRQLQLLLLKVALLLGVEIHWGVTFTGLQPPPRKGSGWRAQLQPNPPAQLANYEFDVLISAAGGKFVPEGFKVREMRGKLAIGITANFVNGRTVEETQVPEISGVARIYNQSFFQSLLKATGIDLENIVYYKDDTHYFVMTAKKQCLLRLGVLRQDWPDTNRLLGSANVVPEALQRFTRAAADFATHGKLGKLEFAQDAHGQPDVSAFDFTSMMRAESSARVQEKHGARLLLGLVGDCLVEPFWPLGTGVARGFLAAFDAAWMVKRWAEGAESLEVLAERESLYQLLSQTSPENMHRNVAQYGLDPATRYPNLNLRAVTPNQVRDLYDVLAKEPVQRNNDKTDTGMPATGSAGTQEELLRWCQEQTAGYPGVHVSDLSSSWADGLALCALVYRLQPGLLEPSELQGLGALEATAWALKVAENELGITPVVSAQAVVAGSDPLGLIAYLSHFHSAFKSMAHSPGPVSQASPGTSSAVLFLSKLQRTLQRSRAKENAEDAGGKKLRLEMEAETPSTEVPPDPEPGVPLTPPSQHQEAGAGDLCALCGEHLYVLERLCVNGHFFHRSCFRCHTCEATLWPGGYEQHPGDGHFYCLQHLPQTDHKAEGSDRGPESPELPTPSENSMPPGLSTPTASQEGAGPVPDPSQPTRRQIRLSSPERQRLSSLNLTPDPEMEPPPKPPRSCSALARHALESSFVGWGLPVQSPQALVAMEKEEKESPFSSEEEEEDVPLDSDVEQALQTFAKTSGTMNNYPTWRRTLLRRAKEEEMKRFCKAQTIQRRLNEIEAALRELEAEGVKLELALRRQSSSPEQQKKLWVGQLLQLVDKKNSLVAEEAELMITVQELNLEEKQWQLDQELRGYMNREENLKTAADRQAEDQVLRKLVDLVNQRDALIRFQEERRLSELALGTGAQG

T2: human MICAL1^ΔCC (residues M1-A917) (human, UniProt Q8TDZ2 1-917)
T2 construct: human MICAL1 lacking the CC domain, residues M1-A917 (MO, L1, CH, L2, LIM, L3); also called MICAL^ΔCC; source: baculovirus-infected Sf9 cells, purified (HisTrap FF, Superdex 200)
T2 sequence (looked up): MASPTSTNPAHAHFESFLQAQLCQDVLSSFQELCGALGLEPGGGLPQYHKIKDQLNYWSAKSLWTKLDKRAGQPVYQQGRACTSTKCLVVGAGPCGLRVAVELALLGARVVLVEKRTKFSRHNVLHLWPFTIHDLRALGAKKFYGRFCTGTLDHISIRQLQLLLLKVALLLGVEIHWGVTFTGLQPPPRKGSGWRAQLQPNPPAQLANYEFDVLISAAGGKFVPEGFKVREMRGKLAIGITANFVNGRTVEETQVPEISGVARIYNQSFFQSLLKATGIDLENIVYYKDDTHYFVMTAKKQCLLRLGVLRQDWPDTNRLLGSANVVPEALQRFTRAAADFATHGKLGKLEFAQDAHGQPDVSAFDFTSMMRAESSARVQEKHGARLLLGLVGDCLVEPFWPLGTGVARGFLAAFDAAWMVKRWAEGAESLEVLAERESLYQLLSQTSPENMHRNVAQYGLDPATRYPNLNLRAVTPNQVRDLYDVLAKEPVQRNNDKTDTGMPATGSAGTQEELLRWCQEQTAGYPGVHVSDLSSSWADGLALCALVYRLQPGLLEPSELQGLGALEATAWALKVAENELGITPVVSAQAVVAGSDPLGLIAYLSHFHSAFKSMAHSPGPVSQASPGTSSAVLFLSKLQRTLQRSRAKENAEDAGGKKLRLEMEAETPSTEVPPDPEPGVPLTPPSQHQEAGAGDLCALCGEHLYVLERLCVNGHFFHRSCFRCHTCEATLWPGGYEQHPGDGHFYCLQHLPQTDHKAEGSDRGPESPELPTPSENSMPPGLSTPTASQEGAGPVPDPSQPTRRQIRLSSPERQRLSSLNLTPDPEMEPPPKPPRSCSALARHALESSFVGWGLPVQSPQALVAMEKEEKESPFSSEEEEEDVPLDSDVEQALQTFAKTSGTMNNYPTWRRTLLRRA


Key:
human MICAL1 = target: T1, human MICAL1; experiment: cryo-EM structure, […] Å; format: binding; details: oxidized state, planar isoalloxazine ring; co-purified, non-covalent; deep cavity of MO domain, stacking with Trp400; autoinhibited full-length enzyme
[1] = target: T2, human MICAL1^ΔCC (residues M1-A917); experiment: BLI; biotinylated CC domain immobilised (8.8 µg/ml) on Octet SAX biosensors, MO or MICAL1^ΔCC as analyte; 20 mM HEPES pH 7.4, 150 mM NaCl, 2 mM DTT, 2 mM MgCl2, 0.05% Tween 20, 20 °C; duplicates; details: both partners purified

Molecule	cryo-EM structure, 3.1 Å (human MICAL1)	Kd [1] [nM]
Cc1cc2nc3c(=O)[nH]c(=O)nc-3n(C[C@H](O)[C@H](O)[C@H](O)COP(=O)(O)OP(=O)(O)OC[C@H]3O[C@@H](n4cnc5c(N)ncnc54)[C@H](O)[C@@H]3O)c2cc1C [FAD]	A deep cavity located between these subdomains is partially occupied by the FAD cofactor	–
biotinylated human MICAL1^CC (residues K918-G1067) (domain or fragment, UniProt Q8TDZ2 918-1067, looked up, biotin on the Avi tag (biotinylated in vivo), human MICAL1 coiled-coil (CC) domain, residues K918-G1067; The BLI construct; also called CC domain; coiled-coil domain; source: E. coli BL21(DE3)BirA, biotinylated in vivo, purified (HisTrap Talon, Superdex 200); not shown: Avi tag, C-terminal, kept) KEEEMKRFCKAQTIQRRLNEIEAALRELEAEGVKLELALRRQSSSPEQQKKLWVGQLLQLVDKKNSLVAEEAELMITVQELNLEEKQWQLDQELRGYMNREENLKTAADRQAEDQVLRKLVDLVNQRDALIRFQEERRLSELALGTGAQG	–	580 ± 170
